From ChEMBL document CHEMBL1909046, “DrugMatrix in vitro pharmacology data”

Legend:
[1] = target: Beta-3 adrenergic receptor (Homo sapiens, UniProt P13945); experiment: DRUGMATRIX: Adrenergic beta3 radioligand binding (ligand: [125I] Cyanopindolol); format: cell membranes, HEK293, Membrane; conditions: Not Active = under 50% inhibition at 10 µM
Cytochrome P450 2D6 = Cytochrome P450 2D6 (Homo sapiens, UniProt P10635); conditions: bti-tn-5b1-4; note: in other assays of this panel Not Active means under 50% inhibition at 10 µM
Cytochrome P450 2D6, sequence (P10635 whole entry): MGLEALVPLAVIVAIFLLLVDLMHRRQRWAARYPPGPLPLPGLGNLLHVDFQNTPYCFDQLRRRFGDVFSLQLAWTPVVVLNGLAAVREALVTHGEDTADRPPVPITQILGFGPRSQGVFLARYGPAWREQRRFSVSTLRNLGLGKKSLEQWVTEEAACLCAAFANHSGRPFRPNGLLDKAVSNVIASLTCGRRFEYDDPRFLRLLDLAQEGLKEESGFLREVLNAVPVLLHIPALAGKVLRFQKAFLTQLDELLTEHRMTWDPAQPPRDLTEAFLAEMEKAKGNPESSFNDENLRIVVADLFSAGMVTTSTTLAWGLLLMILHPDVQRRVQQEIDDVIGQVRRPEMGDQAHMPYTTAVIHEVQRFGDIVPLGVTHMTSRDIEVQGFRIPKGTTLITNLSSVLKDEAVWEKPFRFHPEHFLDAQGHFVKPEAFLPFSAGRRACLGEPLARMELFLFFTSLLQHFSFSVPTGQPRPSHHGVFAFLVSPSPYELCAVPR

[2] = target: T1, Cholecystokinin receptor type A (Homo sapiens, UniProt P32238); format: cell membranes, Membrane; conditions: 1321-n1; note: in other assays of this panel Not Active means under 50% inhibition at 10 µM
T1 sequence (P32238 whole entry): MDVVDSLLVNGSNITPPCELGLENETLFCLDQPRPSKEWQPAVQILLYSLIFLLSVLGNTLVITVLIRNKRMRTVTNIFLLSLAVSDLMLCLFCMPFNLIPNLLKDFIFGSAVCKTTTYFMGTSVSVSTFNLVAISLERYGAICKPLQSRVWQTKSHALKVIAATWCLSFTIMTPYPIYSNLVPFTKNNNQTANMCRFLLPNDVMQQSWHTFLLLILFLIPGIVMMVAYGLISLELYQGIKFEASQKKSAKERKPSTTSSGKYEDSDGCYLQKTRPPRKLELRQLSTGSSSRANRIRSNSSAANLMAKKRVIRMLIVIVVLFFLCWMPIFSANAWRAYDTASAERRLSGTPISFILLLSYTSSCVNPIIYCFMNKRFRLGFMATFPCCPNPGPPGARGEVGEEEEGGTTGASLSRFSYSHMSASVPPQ

Adenosine receptor A3 = target: T2, Adenosine receptor A3 (Homo sapiens, UniProt P0DMS8); format: cell membranes, CHO-K1, Membrane;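 note: radioligand binding assay with AB-MECA serving as the labeled ligand; in other assays of this panel Not Active means under 50% inhibition at 10 µM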
T2 sequence (P0DMS8 whole entry): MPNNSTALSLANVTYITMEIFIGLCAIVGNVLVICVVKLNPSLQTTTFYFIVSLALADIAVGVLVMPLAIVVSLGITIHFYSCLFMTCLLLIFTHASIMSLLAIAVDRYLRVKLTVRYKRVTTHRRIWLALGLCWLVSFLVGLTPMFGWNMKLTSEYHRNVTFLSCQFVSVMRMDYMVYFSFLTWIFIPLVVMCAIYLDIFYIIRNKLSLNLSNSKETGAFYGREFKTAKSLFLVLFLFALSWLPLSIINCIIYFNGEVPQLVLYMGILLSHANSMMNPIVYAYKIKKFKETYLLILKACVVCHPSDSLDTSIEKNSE

[3] = target: T3, C-C chemokine receptor type 4 (Homo sapiens, UniProt P51679); format: cell membranes, Membrane; conditions: chem-1; note: in other assays of this panel Not Active means under 50% inhibition at 10 µM
T3 sequence (P51679 whole entry): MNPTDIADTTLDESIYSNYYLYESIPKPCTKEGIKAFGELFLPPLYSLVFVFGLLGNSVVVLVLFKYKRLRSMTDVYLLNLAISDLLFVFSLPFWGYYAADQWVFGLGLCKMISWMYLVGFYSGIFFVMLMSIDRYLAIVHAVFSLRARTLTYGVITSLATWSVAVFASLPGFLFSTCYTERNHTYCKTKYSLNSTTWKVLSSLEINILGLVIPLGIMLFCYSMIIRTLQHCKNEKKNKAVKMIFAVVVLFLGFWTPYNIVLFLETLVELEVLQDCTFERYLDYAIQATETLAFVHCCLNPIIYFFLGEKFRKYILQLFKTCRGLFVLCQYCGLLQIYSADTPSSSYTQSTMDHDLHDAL

[4] = DRUGMATRIX: Interleukin IL-1 radioligand binding (ligand: [125I] interleukin 1beta); format: cell membranes, Membrane; conditions: nih3t3; Not Active = under 50% inhibition at 10 µM
[5] = target: T4, Vasoactive intestinal polypeptide receptor 1 (Homo sapiens, UniProt P32241); format: cell membranes, Membrane; conditions: ht-29; note: in other assays of this panel Not Active means under 50% inhibition at 10 µM
T4 sequence (P32241 whole entry): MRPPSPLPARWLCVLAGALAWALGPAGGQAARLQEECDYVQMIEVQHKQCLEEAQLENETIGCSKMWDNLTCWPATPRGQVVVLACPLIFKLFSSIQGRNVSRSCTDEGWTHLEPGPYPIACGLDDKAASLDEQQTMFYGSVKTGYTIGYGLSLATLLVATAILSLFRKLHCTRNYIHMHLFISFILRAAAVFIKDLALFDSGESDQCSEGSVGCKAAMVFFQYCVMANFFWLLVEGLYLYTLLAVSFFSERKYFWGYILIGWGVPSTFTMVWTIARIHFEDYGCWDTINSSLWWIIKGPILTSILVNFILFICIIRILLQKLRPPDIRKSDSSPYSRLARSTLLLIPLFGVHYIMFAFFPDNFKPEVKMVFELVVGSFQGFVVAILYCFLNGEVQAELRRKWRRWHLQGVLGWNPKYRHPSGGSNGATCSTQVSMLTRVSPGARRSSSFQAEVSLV

Acetylcholinesterase = Acetylcholinesterase (Homo sapiens, UniProt P22303); experiment: DRUGMATRIX: Acetylcholinesterase enzyme inhibition (substrate: acetylthiocholine); format: cell-based, HEK293; conditions: Not Active = under 50% inhibition at 10 µM
Acetylcholinesterase, sequence (P22303 whole entry): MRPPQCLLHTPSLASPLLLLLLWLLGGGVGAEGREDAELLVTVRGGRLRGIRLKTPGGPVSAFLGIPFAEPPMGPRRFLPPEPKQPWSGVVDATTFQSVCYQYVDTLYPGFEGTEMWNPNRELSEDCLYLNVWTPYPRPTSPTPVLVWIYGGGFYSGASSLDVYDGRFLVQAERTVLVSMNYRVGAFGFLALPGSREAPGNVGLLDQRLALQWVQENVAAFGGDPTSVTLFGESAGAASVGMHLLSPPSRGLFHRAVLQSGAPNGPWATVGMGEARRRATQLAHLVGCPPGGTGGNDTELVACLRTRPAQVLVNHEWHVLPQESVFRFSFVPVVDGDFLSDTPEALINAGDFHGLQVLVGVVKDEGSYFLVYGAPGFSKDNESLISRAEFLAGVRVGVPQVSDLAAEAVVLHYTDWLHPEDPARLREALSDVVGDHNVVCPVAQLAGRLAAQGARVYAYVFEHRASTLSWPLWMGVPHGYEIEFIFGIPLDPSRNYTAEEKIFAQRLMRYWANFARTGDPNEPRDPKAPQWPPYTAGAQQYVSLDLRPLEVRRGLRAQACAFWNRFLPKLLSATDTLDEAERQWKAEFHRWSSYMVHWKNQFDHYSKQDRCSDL

D(4) dopamine receptor = target: T5, D(4) dopamine receptor (Homo sapiens, UniProt P21917); experiment: DRUGMATRIX: Dopamine D4.2 radioligand binding (ligand: [3H] Spiperone); format: cell membranes, CHO-K1, Membrane; conditions: cho-k1; Not Active = under 50% inhibition at 10 µM
T5 sequence (P21917 whole entry): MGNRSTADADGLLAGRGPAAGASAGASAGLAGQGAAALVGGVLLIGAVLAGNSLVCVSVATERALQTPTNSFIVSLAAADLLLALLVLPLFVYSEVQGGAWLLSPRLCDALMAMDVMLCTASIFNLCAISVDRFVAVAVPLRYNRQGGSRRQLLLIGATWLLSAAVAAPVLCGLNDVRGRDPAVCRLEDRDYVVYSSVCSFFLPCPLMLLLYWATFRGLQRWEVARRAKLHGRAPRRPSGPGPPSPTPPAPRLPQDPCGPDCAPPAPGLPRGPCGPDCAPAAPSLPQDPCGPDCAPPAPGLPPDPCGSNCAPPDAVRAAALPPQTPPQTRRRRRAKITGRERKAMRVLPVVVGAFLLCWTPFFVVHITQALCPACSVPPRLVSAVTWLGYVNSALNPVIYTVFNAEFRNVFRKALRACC

[6] = target: Delta-type opioid receptor (Homo sapiens, UniProt P41143); format: cell membranes, HEK293, Membrane; conditions: hek293; note: in other assays of this panel Not Active means under 50% inhibition at 10 µM
Delta-type opioid receptor, sequence (P41143 whole entry): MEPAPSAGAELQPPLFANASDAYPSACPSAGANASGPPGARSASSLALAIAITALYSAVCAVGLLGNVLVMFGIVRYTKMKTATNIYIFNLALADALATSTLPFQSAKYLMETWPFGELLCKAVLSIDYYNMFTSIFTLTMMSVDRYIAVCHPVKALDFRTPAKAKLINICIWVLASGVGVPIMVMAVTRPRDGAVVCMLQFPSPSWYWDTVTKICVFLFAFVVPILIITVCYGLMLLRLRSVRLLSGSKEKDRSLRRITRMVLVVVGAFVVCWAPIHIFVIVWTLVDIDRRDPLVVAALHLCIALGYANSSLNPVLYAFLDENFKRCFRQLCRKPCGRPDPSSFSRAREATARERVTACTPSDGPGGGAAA

[7] = DRUGMATRIX: Leukotriene, BLT (LTB4) radioligand binding (ligand: [3H]LTB4); format: cell membranes, Membrane; conditions: u-937; Not Active = under 50% inhibition at 10 µM
Estrogen receptor beta = Estrogen receptor beta (Homo sapiens, UniProt Q92731); conditions: sf9; note: in other assays of this panel Not Active means under 50% inhibition at 10 µM
Estrogen receptor beta, sequence (Q92731 whole entry): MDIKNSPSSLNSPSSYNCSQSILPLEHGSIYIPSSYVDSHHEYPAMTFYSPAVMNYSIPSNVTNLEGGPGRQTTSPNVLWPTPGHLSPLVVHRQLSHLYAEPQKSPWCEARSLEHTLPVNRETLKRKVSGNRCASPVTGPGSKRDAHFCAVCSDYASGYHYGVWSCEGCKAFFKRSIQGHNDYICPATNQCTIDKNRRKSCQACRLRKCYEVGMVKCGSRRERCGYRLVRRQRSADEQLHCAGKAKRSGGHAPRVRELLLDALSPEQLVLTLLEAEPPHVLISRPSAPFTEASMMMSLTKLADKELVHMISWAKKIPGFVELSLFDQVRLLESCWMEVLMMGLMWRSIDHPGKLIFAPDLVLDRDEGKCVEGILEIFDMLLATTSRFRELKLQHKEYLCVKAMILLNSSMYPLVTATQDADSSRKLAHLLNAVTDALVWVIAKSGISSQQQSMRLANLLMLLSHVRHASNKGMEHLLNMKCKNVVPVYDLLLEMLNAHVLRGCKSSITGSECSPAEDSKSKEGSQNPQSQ

Beta-3 adrenergic receptor, sequence (P13945 whole entry): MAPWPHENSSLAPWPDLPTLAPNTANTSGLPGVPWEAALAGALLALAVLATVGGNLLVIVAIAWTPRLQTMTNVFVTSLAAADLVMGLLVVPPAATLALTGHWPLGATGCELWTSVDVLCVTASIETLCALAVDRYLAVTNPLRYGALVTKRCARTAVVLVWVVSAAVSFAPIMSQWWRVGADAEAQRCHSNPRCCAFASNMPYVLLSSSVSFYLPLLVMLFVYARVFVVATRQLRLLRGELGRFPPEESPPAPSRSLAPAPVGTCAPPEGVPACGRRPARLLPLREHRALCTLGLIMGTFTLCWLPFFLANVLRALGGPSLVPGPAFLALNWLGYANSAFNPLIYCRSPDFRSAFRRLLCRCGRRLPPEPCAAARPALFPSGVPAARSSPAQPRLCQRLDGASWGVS

Compound | IC50 ([1]; hek293) | IC50 (Cytochrome P450 2D6) | Ki (Cytochrome P450 2D6) | IC50 [2] | IC50 (Adenosine receptor A3; cho-k1) | IC50 [3] | IC50 [4] | Ki [4] | IC50 [5] | IC50 (Acetylcholinesterase; hek293) | IC50 (D(4) dopamine receptor) | IC50 [6] | IC50 [7] | Ki [7] | IC50 (Estrogen receptor beta) | further results
CN1C[C@H](C(=O)N[C@]2(C)O[C@@]3(O)[C@@H]4CCCN4C(=O)[C@H](Cc4ccccc4)N3C2=O)C=C2c3cccc4[nH]cc(c34)C[C@H]21 [ERGOTAMINE] | Not Active | Not Active | Not Active | Not Active | Not Active | Not Active | Not Active | Not Active | Not Active | Not Active | Not Active | Not Active | Not Active | Not Active | Not Active | 
c1ccc2c(c1)cc1ccc3cccc4ccc2c1c34 | Not Active | Not Active | Not Active | Not Active | Not Active | Not Active | Not Active | Not Active | Not Active |  | Not Active | Not Active | Not Active | Not Active | Not Active | IC50 (Acetylcholinesterase; read-out: IC50): 28 µM
CCCCCCCCCc1ccc(O)cc1 [4-NONYLPHENOL] |  | Not Active | Not Active | Not Active |  | Not Active | Not Active | Not Active | Not Active | Not Active | Not Active | Not Active | Not Active | Not Active | Not Active | IC50 ([1]; read-out: IC50): 4.19 µM; Ki ([1]; read-out: Ki): 3.14 µM; IC50 (Adenosine receptor A3; read-out: IC50): 1.92 µM; Ki (Adenosine receptor A3; read-out: Ki): 1.08 µM
C=C1[C@@H]2CCC3[C@@](CC[C@@H]4[C@H](C(=O)O)C[C@@H](O[C@@H]5O[C@H](CO)[C@@H](OS(=O)(=O)[O-])[C@H](OS(=O)(=O)[O-])[C@H]5OC(=O)CC(C)C)C[C@@]34C)(C2)[C@@H]1O.[K+].[K+] (stereo not given in full) [ATRACTYLOSIDE] | Not Active | Not Active | Not Active | Not Active | Not Active | Not Active | Not Active | Not Active | Not Active | Not Active | Not Active | Not Active | Not Active | Not Active | Not Active | 
N#C[C@H](O[C@@H]1O[C@H](CO[C@@H]2O[C@H](CO)[C@@H](O)[C@H](O)[C@H]2O)[C@@H](O)[C@H](O)[C@H]1O)c1ccccc1 [AMYGDALIN] | Not Active | Not Active | Not Active | Not Active | Not Active | Not Active | Not Active | Not Active | Not Active | Not Active | Not Active | Not Active | Not Active | Not Active | Not Active | 
C=C(C)[C@@H]1[C@H]2OC(=O)[C@@H]1[C@]1(O)C[C@H]3O[C@]34C(=O)O[C@H]2[C@]14C [PICROTOXININ] | Not Active | Not Active | Not Active | Not Active | Not Active | Not Active | Not Active | Not Active | Not Active | Not Active | Not Active | Not Active | Not Active | Not Active | Not Active | 
OXALIPLATIN | Not Active | Not Active | Not Active | Not Active | Not Active | Not Active | Not Active | Not Active | Not Active | Not Active | Not Active | Not Active | Not Active | Not Active | Not Active | Ki ([1]; hek293): Not Active; Ki [2]: Not Active; Ki (Adenosine receptor A3; cho-k1): Not Active; Ki [3]: Not Active; Ki [5]: Not Active; Ki (Acetylcholinesterase; hek293): Not Active; Ki (D(4) dopamine receptor): Not Active; Ki [6]: Not Active; Ki (Estrogen receptor beta): Not Active
CARBOPLATIN | Not Active | Not Active | Not Active | Not Active | Not Active | Not Active | Not Active | Not Active | Not Active | Not Active | Not Active | Not Active | Not Active | Not Active | Not Active | Ki ([1]; hek293): Not Active; Ki [2]: Not Active; Ki (Adenosine receptor A3; cho-k1): Not Active; Ki [3]: Not Active; Ki [5]: Not Active; Ki (Acetylcholinesterase; hek293): Not Active; Ki (D(4) dopamine receptor): Not Active; Ki [6]: Not Active; Ki (Estrogen receptor beta): Not Active
